Biological target: 3-phosphoinositide-dependent protein kinase 1 (Homo sapiens) (UniProt O15530)
Assay: Inhibition of recombinant PDK1

CCN1CCN(c2ccc(Nc3cc(N(C)C(=O)Nc4c(Cl)c(OC)cc(OC)c4Cl)ncn3)cc2)CC1 was tested. Which IC50 did it give?
Its IC50 is > 10 µM.

— BindingDB's records for doi:10.1021/jm2006222
